According to publication PMC5891627, “Binding Specificity of Two PBPs in the Yellow Peach Moth Conogethes punctiferalis (Guenée)” (Frontiers in Physiology, 2018):

Key:
[1] = target: CpunPBP2 (Conogethes punctiferalis, UniProt A0A1D6X8W8); experiment: Fluorescence displacement (competitive, 1-NPN) binding assay; details: for IC50 / Kd / activity at 6000 µM: pH = 7.4; for IC50: 1-NPN 2 μM as fluorescent reporter, 2 μM protein, read-out: IC50; for Kd: calculated from IC50: KD = [IC50]/(1+[1-NPN]/K1-NPN), read-out: KD (μM), calculated dissociation constant; for binding affinity to CpunPBP2 (in words): ranking among the 24 tested ligands; for activity at 6000 µM: ratio of fluorescence intensity at the pheromone concentration of 6 mM to the initial fluorescence intensity, read-out: Int (%)
Sequence of CpunPBP2 (A0A1D6X8W8 entry or part of it): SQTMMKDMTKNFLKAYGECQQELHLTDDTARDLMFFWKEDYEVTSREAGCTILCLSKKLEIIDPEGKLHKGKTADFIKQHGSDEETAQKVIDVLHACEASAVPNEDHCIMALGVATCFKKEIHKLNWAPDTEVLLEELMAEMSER
Experimental: (§1) The fluorescence intensity was recorded on a FluoroMax-4 spectrophotometer (Horiba Scientific, USA) at room temperature using a 1 cm light path fluorimeter quartz cuvette. The fluorescent probe N-phenyl-1-naphthylamine (1-NPN) and all the tested chemicals were dissolved in HPLC purity methanol. The final concentration was prepared 1 mM. […] The fluorescence of 1-NPN was excited at 337 nm and emission spectra were recorded between […]. […] The GraphPad Prism 5 (GraphPad Software, Inc.) was used to estimate the K1−NPN (KD of complex protein /1-NPN) values by nonlinear regression for a unique site of binding. It was assumed that the proteins were 100% active, with a stoichiometry of 1:1 (protein:ligand) at saturation. […] In the equation, [1-NPN] is the free concentration of 1-NPN, and K1−NPN is the dissociation constant of the complex protein /1-NPN.

[2] = target: CpunPBP5 (Conogethes punctiferalis, UniProt A0A0M4FIS7); experiment: as above; details: for IC50 / Kd / activity at 6000 µM: pH = 7.4; for IC50: 1-NPN 2 μM as fluorescent reporter, 2 μM protein, read-out: IC50; for Kd: calculated from IC50: KD = [IC50]/(1+[1-NPN]/K1-NPN), read-out: KD (μM), calculated dissociation constant; for binding affinity to CpunPBP5 (in words): ranking among the 24 tested ligands; for activity at 6000 µM: ratio of fluorescence intensity at the pheromone concentration of 6 mM to the initial fluorescence intensity, read-out: Int (%)
Sequence of CpunPBP5 (A0A0M4FIS7 entry or part of it): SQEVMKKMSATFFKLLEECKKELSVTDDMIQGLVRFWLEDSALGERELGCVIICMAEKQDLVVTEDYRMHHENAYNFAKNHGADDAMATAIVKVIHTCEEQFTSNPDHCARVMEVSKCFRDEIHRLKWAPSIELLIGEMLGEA
Experimental: as §1

[3] = target: CpunPBP2-m1 (CpunPBP2-Phe9 mutant) (Conogethes punctiferalis, UniProt A0A1D6X8W8, F33Y); experiment: Fluorescence displacement binding assay of mutants; details: for Kd: read-out: KD, calculated dissociation constant
Sequence of CpunPBP2-m1 (CpunPBP2-Phe9 mutant) (A0A1D6X8W8 entry or part of it F33Y): as the sequence (A0A1D6X8W8 entry or part of it) above, with F12Y counted along it
Experimental: (§2) The fluorescence intensity was recorded on a FluoroMax-4 spectrophotometer (Horiba Scientific, USA) at room temperature using a 1 cm light path fluorimeter quartz cuvette. The fluorescent probe N-phenyl-1-naphthylamine (1-NPN) and all the tested chemicals were dissolved in HPLC purity methanol. The final concentration was prepared 1 mM. To measure the affinity of florescent ligand 1-NPN to each protein, a 2 μM solution of the protein in 50 mM Tris-HCl, pH 7.4, was titrated with aliquots of 1 mM ligand in methanol to final concentrations of 1–8 μM. The fluorescence of 1-NPN was excited at 337 nm and emission spectra were recorded between […] and 450 nm. The affinity of other ligands was measured in competitive binding assays, using 1-NPN as the fluorescent reporter at 2 μM concentration and different concentrations of each ligands. The GraphPad Prism 5 (GraphPad Software, Inc.) was used to estimate the K1−NPN (KD of complex protein /1-NPN) values by nonlinear regression for a unique site of binding. It was assumed that the proteins were 100% active, with a stoichiometry of 1:1 (protein:ligand) at saturation. For other competitor ligands, the dissociation constants were calculated from the corresponding IC50 (concentrations of ligands halving the initial fluorescence value of 1-NPN) values using Microsoft Office Excel 2010, with the formula: KD = [IC50]/(1+[1-NPN]/K1−NPN). In the equation, [1-NPN] is the free concentration of 1-NPN, and K1−NPN is the dissociation constant of the complex protein /1-NPN.
(§3) Four mutants of CpunPBP2 and four mutants of CpunPBP5 were developed using the QuikChange Lightning Site-Directed Mutagenesis Kit (Stratagene, USA). The mutational primers were designed manually. Mutation sites are underlined in Table S2. The CpunPBP2/pGEM-T Easy construct was used as a template. The PCR conditions were 95°C for 5 min, followed by 30 cycles of 95°C for 30 s, 58°C for 30 s and 68°C for 1 min, and final extension at 72°C for 10 min. The correct insertion of mutation was subcloned into pGEM-T Easy vector (TransGen, Beijing, China). The expression system and fluorescence binding assay were conducted as mentioned for wild type proteins.
(§4) Supplementary file Image3.jpg: Figure S3 SDS-PAGE analyses of purified CpunPBP2 and CpunPBP5 with their mutants. M: marker protein. (A)1:CpunPBP2 original protein. (A)2: CpunPBP2-Phe9 mutant (CpunPBP2-m1). (A)3: CpunPBP2-Phe33 mutant (CpunPBP2-m2). (A)4: CpunPBP2-Ser53 mutant (CpunPBP2-m3). (A)5: CpunPBP2-Phe115 mutant (CpunPBP2-m4). (B)1:CpunPBP5 original protein. (B)2: CpunPBP5-Ser9 mutant (CpunPBP5-m1). (B)3: CpunPBP5-Phe12 mutant (CpunPBP5-m2). (B)4: CpunPBP5-Val115 mutant (CpunPBP5-m3). (B)5: CpunPBP5-Arg120 mutant (CpunPBP5-m4). Click here for additional data file.

[4] = target: CpunPBP2-m2 (CpunPBP2-Phe33 mutant) (Conogethes punctiferalis, UniProt A0A1D6X8W8, F57Y); experiment: Fluorescence displacement binding assay of mutants; details: for Kd: read-out: KD, calculated dissociation constant
Sequence of CpunPBP2-m2 (CpunPBP2-Phe33 mutant) (A0A1D6X8W8 entry or part of it F57Y): as the sequence (A0A1D6X8W8 entry or part of it) above, with F36Y counted along it
Experimental: as §2, §3, §4

[5] = target: CpunPBP2-m3 (CpunPBP2-Ser53 mutant) (Conogethes punctiferalis, UniProt A0A1D6X8W8, S77Y); experiment: Fluorescence displacement binding assay of mutants; details: for Kd: read-out: KD, calculated dissociation constant
Sequence of CpunPBP2-m3 (CpunPBP2-Ser53 mutant) (A0A1D6X8W8 entry or part of it S77Y): as the sequence (A0A1D6X8W8 entry or part of it) above, with S56Y counted along it
Experimental: as §2, §3, §4

[6] = target: CpunPBP2-m4 (CpunPBP2-Phe115 mutant) (Conogethes punctiferalis, UniProt A0A1D6X8W8, F139Y); experiment: Fluorescence displacement binding assay of mutants; details: for Kd: read-out: KD, calculated dissociation constant
Sequence of CpunPBP2-m4 (CpunPBP2-Phe115 mutant) (A0A1D6X8W8 entry or part of it F139Y): as the sequence (A0A1D6X8W8 entry or part of it) above, with F118Y counted along it
Experimental: as §2, §3, §4

[7] = target: CpunPBP5-m1 (CpunPBP5-Ser9 mutant) (Conogethes punctiferalis, UniProt A0A0M4FIS7, S34T); experiment: Fluorescence displacement binding assay of mutants
Sequence of CpunPBP5-m1 (CpunPBP5-Ser9 mutant) (A0A0M4FIS7 entry or part of it S34T): as the sequence (A0A0M4FIS7 entry or part of it) above, with S9T counted along it
Experimental: as §2, §3, §4

[8] = target: CpunPBP5-m2 (CpunPBP5-Phe12 mutant) (Conogethes punctiferalis, UniProt A0A0M4FIS7, F37Y); experiment: Fluorescence displacement binding assay of mutants
Sequence of CpunPBP5-m2 (CpunPBP5-Phe12 mutant) (A0A0M4FIS7 entry or part of it F37Y): as the sequence (A0A0M4FIS7 entry or part of it) above, with F12Y counted along it
Experimental: as §2, §3, §4

[9] = target: CpunPBP5-m3 (CpunPBP5-Val115 mutant) (Conogethes punctiferalis, UniProt A0A0M4FIS7, V140A); experiment: Fluorescence displacement binding assay of mutants
Sequence of CpunPBP5-m3 (CpunPBP5-Val115 mutant) (A0A0M4FIS7 entry or part of it V140A): as the sequence (A0A0M4FIS7 entry or part of it) above, with V115A counted along it
Experimental: as §2, §3, §4

[10] = target: CpunPBP5-m4 (CpunPBP5-Arg120 mutant) (Conogethes punctiferalis, UniProt A0A0M4FIS7, R145K); experiment: Fluorescence displacement binding assay of mutants
Sequence of CpunPBP5-m4 (CpunPBP5-Arg120 mutant) (A0A0M4FIS7 entry or part of it R145K): as the sequence (A0A0M4FIS7 entry or part of it) above, with R120K counted along it
Experimental: as §2, §3, §4

[11] = system: yellow peach moth males; design: method as in Liu et al., [1994]; details: ref Liu et al., [1994]; cited from earlier work

Structure (SMILES)	IC50 [1]	Kd [1]	binding affinity to CpunPBP2 (in words) [1]	activity at 6000 µM [1]	IC50 [2]	Kd [2]	binding affinity to CpunPBP5 (in words) [2]	activity at 6000 µM [2]	IC50 [3]	Kd [3]	IC50 [4]	Kd [4]	IC50 [5]	Kd [5]	IC50 [6]	Kd [6]	IC50 [7]	Kd [7]	IC50 [8]	Kd [8]	other results
CCCCC/C=C/CCCCCCCCC=O [E10-16:Ald, (E)-10-hexadecenal]	940 ± 30 nM	0.4 ± 0.01 µM	highest binding ability	39.5 ± 0.83%	1330 ± 60 nM	0.6 ± 0.02 µM	highest binding ability	40 ± 1.53%	800 ± 20 nM	220 ± 10 nM	1180 ± 200 nM	540 ± 90 nM	1040 ± 130 nM	110 ± 10 nM	30000 ± 17600 nM	19900 ± 11700 nM	1630 ± 10 nM	720 nM	2730 ± 330 nM	1490 ± 180 nM	IC50 [9]: 3640 ± 100 nM; Kd [9]: 1850 ± 160 nM; binding affinity of mutant compared with CpunPBP5 (in words) ([9]; mutant CpunPBP5-m3 vs wild type): decreased the most; IC50 [10]: 2610 ± 780 nM; Kd [10]: 1060 ± 320 nM
CCCCCCCCCCCCCCCC=O [Hexadecanal]	1840 ± 20 nM	1.07 ± 0.01 µM		34.03 ± 0.34%	4510 ± 80 nM	3.65 ± 0.07 µM		46.83 ± 0.18%													attraction of males in field trials [11]: do not attract males
CCCCC/C=C\CCCCCCCCC=O [Z10-16:Ald, (Z)-10-hexadecenal]	980 ± 90 nM	0.42 ± 0.04 µM	highest binding ability	42.5 ± 1.88%	970 ± 20 nM	0.36 ± 0.01 µM	highest binding ability	40.6 ± 1.39%	760 ± 10 nM	210 nM	790 ± 30 nM	360 ± 10 nM	920 ± 50 nM	100 nM	15400 ± 3180 nM	10200 ± 2110 nM	1410 ± 20 nM	720 ± 10 nM	1660 ± 30 nM	900 ± 20 nM	IC50 [9]: 1620 ± 40 nM; Kd [9]: 820 ± 20 nM; IC50 [10]: 2570 ± 550 nM; Kd [10]: 1040 ± 220 nM; binding capacity of mutant compared with CpunPBP5 (in words) ([10]; mutant CpunPBP5-m4 vs wild type): decreased considerably; attraction of males in field trials [11]: do not attract males
